Test results: patent US10501452B2, “Lactam compound derivative and application thereof” (NHWA PHARMA. CORPORATION, priority 2015, dated 2019)
Where two headings read alike, the source gives them in different places.

How the values were obtained:
Histamine H1 receptor = Histamine H1 receptor (Cavia porcellus (Guinea pig), UniProt P31389); experiment: Histamine H1 receptor binding assay (3H-pyrilamine); settings: guinea pig cerebellum membrane, 3H-pyrilamine
Experimental: Preparation of Histamine H1 Receptor Membrane
Guinea pigs were decapitated. […] Vortex mixer was used for blending. Centrifugation was conducted at 48000 g, 4° C. for 10 min. The supernatant was discarded to give pellets, and buffer was added again for washing. Centrifugation was conducted and repeated 3 times.
(§1) Materials for the Receptor Binding Assay
(2) 100 μL of membrane preparation was added into each reaction tube.

5-HT2A = 5-HT2A (Rattus norvegicus (Rat), UniProt P14842); experiment: 5-HT2A receptor binding assay ([3H]-Ketanserin)
Experimental: Rats were decapitated. Cortex of brain was rapidly taken on ice, and 3 ml of buffer (0.05 M Tris-HCl buffer: 6.05 g of Tris was dissolved in 1000 ml of double-distilled water, and concentrated HCl was used to adjust to pH 7.5) was added, homogenization was conducted, and then 5 ml of buffer was added. Incubation was conducted at 37° C. for 10 min, the weight of the tubes were adjusted using a balance after incubation. Centrifugation was conducted at 12000 rpm, 4° C. for 20 min, the supernatant was discarded, and 3 ml of buffer was added. Vortex mixer was used for blending, and then 5 ml of buffer was added. Centrifugation was conducted (repeated 3 times). After the centrifugation, the supernatant was discarded, and the pellets were stored at −80° C. for future use.
(1) The prepared membrane was applied with buffer, and homogenizer was used for evenly dispersing. 15 tubes were mixed into a 100 ml container, and appropriate amount of buffer was added to give 50 ml of membrane suspension, which was reserved for future use.
(§6) (2) 100 μL of membrane preparation and 100 μL of buffer were added into each reaction tube.
(3) 100 μL of buffer was added into the total binding tube (TB), 100 μL of Methysergide (final concentration 10^−5M) was added into the nonspecific binding tube (NB), 100 μL of the test compound (final concentration 10^−5M) was added into the specific binding tube (SB) of each test compound.
(5) Each of the reaction tubes was incubated at 37° C. for 15 min. After the reaction was completed, the bound ligands were rapidly filtered under reduced pressure, and sufficiently washed with ice-chilled assay buffer. The filter was taken out and put into a 3 ml scintillation vial, and 2 ml of toluene scintillation cocktail was added and blended.
(6) The scintillation vial were put into Liquid Scintillation Counter for counting. Inhibition rate(I%)=(Total binding tube cpm−compound cpm)/(Total binding tube cpm−nonspecific binding tube cpm)×100%

D2 = D2 (Rattus norvegicus (Rat), UniProt P61169); experiment: D2 receptor binding assay (3H-Spiperone)
Experimental: Rats were decapitated. Striatum of brain was rapidly taken on ice, 3 ml of buffer (0.05 M Tris-HCl buffer, containing NaCl 120 mM, KCl 5 mM, MgCl2 1 mM, CaCl2 1 mM) was added, homogenization was conducted, and then 5 ml of buffer was then added. The weight of the homogenized tubes were adjusted using a balance, and centrifugation was conducted. The supernatant was discarded, and 3 ml of buffer was added. Vortex mixer was used for blending, and then 5 ml of buffer was added. Centrifugation was conducted and repeated 3 times. The supernatant was discarded after centrifugation was completed, and the pellets were stored at −80° C. for future use.
Beckman LS-6500 Multi-function Liquid Scintillation Counter was used.
(1) The prepared membrane was applied with appropriate amount of buffer, and homogenizer was used for evenly dispersing. 15 tubes were mixed into a 100 ml container, and appropriate amount of buffer was added to give 50 ml of membrane suspension, which was reserved for future use.
as §6
(3) 100 μL of buffer was added into the total binding tube (TB), 100 μL of Butaclamol (final concentration 10^−5M) was added into the nonspecific binding tube (NB), 100 μL of the test compound (final concentration 10^−5M) was added into the specific binding tube (SB) of each test compound.
(5) Each of the reaction tubes was incubated at 37° C. for 20 min. After the reaction was completed, the bound ligands were rapidly filtered under reduced pressure, and sufficiently washed with ice-chilled assay buffer. The filter was taken out and put into a 3 ml scintillation vial, and 2 ml of toluene scintillation cocktail was added and blended.
(6) The scintillation vials were put into Liquid Scintillation Counter for counting. Inhibition rate(I%)=(Total binding tube cpm−compound cpm)/(Total binding tube cpm−nonspecific binding tube cpm)×100%
Each assay for the compounds was conducted in duplicate for two individual tests.

5-HT7 receptor = 5-HT7 receptor (Rattus norvegicus (Rat), UniProt P32305); experiment: 5-HT7 receptor binding assay ([3H]-5-CT); settings: rat hypothalamus membrane, [3H]-5-CT
Experimental: Adult SD rats were decapitated. […] Centrifugation was conducted (repeated 3 times).
as §1

5-HT1A = 5-HT1A (Rattus norvegicus (Rat), UniProt P19327); experiment: 5-HT1A receptor binding assay (3H-8-OH-DPAT); settings: rat cortex membrane, 3H-8-OH-DPAT
Experimental: Rats were decapitated. […] Incubation at 37° C. was conducted for 10 min. […] Centrifugation was conducted and repeated 3 times.
as §1

[1] = tested on: MK-801 induced high activity in mice; experiment: MK-801 induced high activity; type: in vivo; settings: for ED50: Mus musculus, po; for improvement of MK-801 induced high activity (in words): compared with risperidone
Experimental: Ascorbic acid was provided by Sinopharm Chemical Reagent Co. Ltd.
Subsequently, the spontaneous activities of the mice of each group in 90 min were measured.

[2] = Acute toxicity study (mice); type: in vivo; settings: both sexes, KM, mouse, in vivo, po, intragastric
Experimental: (§2) Example 41: Acute Toxicity Study
(§3) Limit test of sequential assay: KM rats or mice (half male and half female) were randomly divided into several groups (with 2-5 mice in each group), which were respectively the 2000 mg/kg groups for each compound, and the solvent group. 0.2 ml/10 g were administered intragastrically. The deaths of the animals in 3 days were observed. In the case 3 or more animals survived in 3 days without notable abnormity in their life states, the observation was continued until the assay was completed in 7 days. In the case 3 or more animals died in 3 days, the method of median lethal dose was used to determine the LD50.
Pre-assay for the method of the median lethal dose: KM mice (half male and half female) were randomly divided into several groups (with 4 mice in each group), which were respectively the 500 mg/kg, 200 mg/kg, 50 mg/kg groups for each compound, and the solvent group. 0.2 ml/10 g were administered intragastrically, and the deaths of the animals in 1-3 days were observed.
(§4) Results: The compound of the invention has relatively low acute toxicity.

Catalepsy assay = settings: both, Kunming, mouse, in vivo, po
Experimental: (§5) The durations of the mice to maintain the posture with the two forepaws on the bars were recorded, and 30 s of spasticity without moving was considered as the positive response. In the case the forepaws of the mice were not put down persistently, the observation was terminated at 60 s. The numbers of animals with positive response in each of the compound dosage groups were counted.

catalepsy in mice = experiment: Catalepsy assay; settings: for Catalepsy/Apomorphine induced clambering / Catalepsy/MK-801 induced high activity: mice, ratio of ED50 values; for EPS in effective dosage (in words): mouse, in vivo
Experimental: as §5

[3] = Acute toxicity study (rats); settings: both sexes, KM, in vivo, po, 2000 mg/kg; rat, intragastric
Experimental: as §2, §3, §4

[4] = tested on: conditioned avoidance response in rats; experiment: animal or person; type: in vivo, rat; settings: rat; for ED50: po, intragastric, 1 hour after administration, read-out: Rat CAR ED50; for Therapeutic index: LD50 versus CAR ED50; for performance in the rat CAR model (in words): compared with risperidone
Experimental: […] of SD rats, male.
Firstly, training the rats with shuttle box:
(1) The rats were allowed for adaption for five minutes;
(2) Conditioned stimulus (CS, light and noise) were started and lasted for 20 s, and at the tenth second, unconditioned stimulus (US, 1.5 mA electric shock) was performed and lasted for 10 s;
(3) Training was conducted 30 times per day for 9 days. The interval between two trainings was set randomly ranged from 20 to 30 s;
(4) Observation indicators:
The animal ran to another compartment during the conditioning stimulus was recorded as “avoidance”;
Animals ran to another compartment during the electric shock was recorded as “escape”;
Grouping of the qualified rats: the qualified rats were divided into negative control group, positive drug groups of each dosage, and compound groups of each dosage according to the principle of randomization, 8 in each group.
Administration Method: Corresponding solvent was administered intragastrically to the negative control group; corresponding dosages of positive drugs were administered intragastrically to the positive drug groups of each dosage; and corresponding dosages of compounds were administered intragastrically to the compound groups of each dosage.
CAR Assay: A CAR assay was performed 1 hour after intragastric administration. The method was the same as the CAR training. The observation indicators were the number of avoidances, the number of escapes, and the number of escape failures.
Statistical Data Processing: Assay data are presented as mean±standard deviation (Mean±SD), the comparison was performed by a combination of one-way ANOVA with post-hoc LSD. The ED50 was calculated using the probit method.

[5] = tested on: Apomorphine induced clambering in mice; experiment: Apomorphine induced clambering assay of mice; type: in vivo; settings: mice; for ED50: Mus musculus, po, read-out: Apomorphine induced clambering (ED50, po, mg/kg); for improvement of apomorphine induced clambering symptoms (in words): compared with risperidone
Experimental: Healthy KM mice, male, with body weight of 18-22 g, were provided by Qinglongshan Animal Cultivation Center, Nanjing.
Apomorphine provided by Sigma Company was dissolved in 0.9% NaCl (containing 0.1% vitamin C) before use, and was freshly formulated before use.
Vitamin C, F20061113, was provided by Sinopharm Chemical Reagent Co. Ltd.
Instruments: self-made clambering cage, chronograph.
Procedures: apomorphine induced clambering assay of mice
After 5 min of adaptation, the behavior of the mice at 10-11, 20-21, and 30-31 min after the injection of apomorphine were observed and scored.

[6] = read-out: Ki (nM) 5-HT2A, rat cortex membrane, [3H]-Ketanserin
[7] = read-out: Ki (nM) D2, rat striatum membrane, 3H-Spiperone

Chain of 5-HT2A (P14842 whole entry): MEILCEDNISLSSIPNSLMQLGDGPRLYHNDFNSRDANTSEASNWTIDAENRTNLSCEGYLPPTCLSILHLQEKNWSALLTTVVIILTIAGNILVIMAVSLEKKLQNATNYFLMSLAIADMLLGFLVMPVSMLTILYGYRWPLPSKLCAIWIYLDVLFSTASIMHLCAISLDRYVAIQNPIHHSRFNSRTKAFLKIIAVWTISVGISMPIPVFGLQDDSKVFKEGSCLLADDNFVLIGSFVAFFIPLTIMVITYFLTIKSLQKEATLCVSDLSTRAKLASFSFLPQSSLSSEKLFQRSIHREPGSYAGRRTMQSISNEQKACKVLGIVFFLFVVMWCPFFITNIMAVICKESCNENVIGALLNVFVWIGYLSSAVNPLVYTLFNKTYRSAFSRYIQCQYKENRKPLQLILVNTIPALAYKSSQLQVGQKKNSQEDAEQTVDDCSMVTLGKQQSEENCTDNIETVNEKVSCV
Chain of D2 (P61169 whole entry): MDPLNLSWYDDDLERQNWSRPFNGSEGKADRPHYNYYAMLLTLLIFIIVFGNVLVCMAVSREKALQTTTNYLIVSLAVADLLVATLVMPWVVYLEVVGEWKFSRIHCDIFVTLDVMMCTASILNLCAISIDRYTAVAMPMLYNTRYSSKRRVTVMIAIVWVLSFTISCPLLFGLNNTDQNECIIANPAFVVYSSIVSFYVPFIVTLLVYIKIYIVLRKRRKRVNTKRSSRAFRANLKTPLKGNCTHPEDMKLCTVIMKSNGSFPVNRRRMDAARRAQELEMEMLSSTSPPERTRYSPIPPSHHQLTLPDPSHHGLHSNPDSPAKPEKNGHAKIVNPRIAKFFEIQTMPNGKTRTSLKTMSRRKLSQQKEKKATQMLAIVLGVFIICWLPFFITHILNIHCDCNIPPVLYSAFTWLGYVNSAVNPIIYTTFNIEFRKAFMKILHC
Chain of 5-HT7 receptor (P32305 whole entry): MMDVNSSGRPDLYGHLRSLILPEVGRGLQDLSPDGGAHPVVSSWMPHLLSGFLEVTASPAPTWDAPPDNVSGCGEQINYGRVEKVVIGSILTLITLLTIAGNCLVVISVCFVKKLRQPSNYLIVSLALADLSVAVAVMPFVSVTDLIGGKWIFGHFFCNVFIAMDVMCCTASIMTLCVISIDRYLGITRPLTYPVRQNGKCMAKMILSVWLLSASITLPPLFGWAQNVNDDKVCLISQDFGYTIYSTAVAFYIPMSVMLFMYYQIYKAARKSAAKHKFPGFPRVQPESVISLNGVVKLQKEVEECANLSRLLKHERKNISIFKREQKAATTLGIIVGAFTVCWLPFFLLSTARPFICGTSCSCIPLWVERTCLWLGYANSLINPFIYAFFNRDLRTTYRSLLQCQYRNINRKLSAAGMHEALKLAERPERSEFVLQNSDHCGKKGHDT
Chain of 5-HT1A (P19327 whole entry): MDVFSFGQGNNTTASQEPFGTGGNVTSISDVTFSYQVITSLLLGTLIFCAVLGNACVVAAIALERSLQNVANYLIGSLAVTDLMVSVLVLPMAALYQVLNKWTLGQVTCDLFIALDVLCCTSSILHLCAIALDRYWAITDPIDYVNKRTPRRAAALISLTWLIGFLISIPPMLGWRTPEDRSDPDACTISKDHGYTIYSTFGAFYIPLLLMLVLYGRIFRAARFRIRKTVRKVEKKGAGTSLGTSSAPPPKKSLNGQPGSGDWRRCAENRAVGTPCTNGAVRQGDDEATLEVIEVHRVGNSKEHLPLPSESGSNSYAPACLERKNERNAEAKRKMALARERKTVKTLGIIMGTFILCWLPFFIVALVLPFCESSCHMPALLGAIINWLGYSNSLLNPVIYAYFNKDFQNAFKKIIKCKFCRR
Chain of Histamine H1 receptor (P31389 whole entry): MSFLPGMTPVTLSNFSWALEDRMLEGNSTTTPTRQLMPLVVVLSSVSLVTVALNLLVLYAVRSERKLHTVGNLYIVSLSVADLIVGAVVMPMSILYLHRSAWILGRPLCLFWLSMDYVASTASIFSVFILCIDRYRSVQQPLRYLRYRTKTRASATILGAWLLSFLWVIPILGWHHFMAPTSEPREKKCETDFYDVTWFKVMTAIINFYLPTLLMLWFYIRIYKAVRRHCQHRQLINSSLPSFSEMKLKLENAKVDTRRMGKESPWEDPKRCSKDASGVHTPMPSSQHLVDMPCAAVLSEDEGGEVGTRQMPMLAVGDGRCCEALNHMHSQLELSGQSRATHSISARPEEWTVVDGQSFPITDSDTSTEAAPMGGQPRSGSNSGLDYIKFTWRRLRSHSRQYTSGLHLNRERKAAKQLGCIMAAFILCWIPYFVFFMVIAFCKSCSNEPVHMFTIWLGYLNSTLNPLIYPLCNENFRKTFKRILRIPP

Structure (SMILES)	Ki (Histamine H1 receptor) [nM]	Ki (5-HT2A; [6]) [nM]	Ki (D2; [7]) [nM]	Ki (5-HT7 receptor) [nM]	Ki (5-HT1A) [nM]	ED50 [1] [mg/kg]	improvement of MK-801 induced high activity (in words) [1]	LD50 [2] [mg/kg]	ED50 (Catalepsy assay) [mg/kg]	Catalepsy/Apomorphine induced clambering (catalepsy in mice)	Catalepsy/MK-801 induced high activity (catalepsy in mice)	EPS in effective dosage (in words) (catalepsy in mice)	LD50 at 3 days [3] [mg/kg]	ED50 [4] [mg/kg]	Therapeutic index [4]	performance in the rat CAR model (in words) [4]	ED50 [5] [mg/kg]	improvement of apomorphine induced clambering symptoms (in words) [5]	Ki (5-HT2A) [nM]	Ki (D2) [nM]
O=C1NCCc2ccc(OCCCN3CCC(c4noc5cc(F)ccc45)CC3)cc21 [Compound 12, 7-(3-(4-(6-fluorobenzo[d]isoxazol-3-yl)piperidin-1-yl)propoxy)-3,4-dihydroisoquinolin-1(2H)-one]	> 2000	5.5	10.4	8.9	19.3	–	–	–	–	–	–	–	–	–	–	–	–	–	–	–
CN1CCc2ccc(OCCCN3CCN(c4nsc5ccccc45)CC3)cc2C1=O [Compound 14, 7-(3-(4-(benzo[d]isothiazol-3-yl)piperazin-1-yl)propoxy)-2-methyl-3,4-dihydroisoquinolin-1(2H)-one]	1360	7.2	6.9	16.8	8.8	0.07	significantly improve	202	32	533	457	do not cause EPS	155	0.65	238	markedly better than risperidone	0.06	effectively improve	–	–
CN1CCc2ccc(OCCCN3CCN(c4ccccc4F)CC3)cc2C1=O [Compound 20, 7-(3-(4-(2-fluorophenyl)piperazin-1-yl)propoxy)-2-methyl-3,4-dihydroisoquinolin-1(2H)-one]	> 2000	32.1	54.8	29.9	24.5	–	–	–	–	–	–	–	–	–	–	–	–	–	–	–
COc1ccccc1N1CCN(CCCOc2ccc3c(c2)C(=O)N(C)CC3)CC1 [Compound 22, 7-(3-(4-(2-methoxyphenyl)piperazin-1-yl)propoxy)-2-methyl-3,4-dihydroisoquinolin-1(2H)-one]	> 2000	3.2	9.6	28.1	6.5	0.12	significantly improve	311	52	273	433	do not cause EPS	198	0.49	404	markedly better than risperidone	0.19	effectively improve	–	–
CN1CCc2ccc(OCCCN3CCN(c4ncccn4)CC3)cc2C1=O [Compound 24, 2-methyl-7-(3-(4-(pyrimidin-2-yl)piperazin-1-yl)propoxy)-3,4-dihydroisoquinolin-1(2H)-one]	> 2000	7.5	11.9	9.9	8.8	0.18	–	190	47	214	261	–	146	1.02	143	–	0.22	–	–	–
CN1CCc2ccc(OCCCN3CCC(C(=O)c4ccc(F)cc4)CC3)cc2C1=O [Compound 25, 7-(3-(4-(4-fluorobenzoyl)piperidin-1-yl)propoxy)-2-methyl-3,4-dihydroisoquinolin-1(2H)-one]	> 2000	21.7	32.8	10.8	17.6	–	–	–	–	–	–	–	–	–	–	–	–	–	–	–
Cn1cnc2ccc(OCCCCN3CCN(c4cccc(C(F)(F)F)c4)CC3)cc2c1=O [Compound 28, 3-methyl-6-(4-(4-(3-(trifluoromethyl)phenyl)piperazin-1-yl)butoxy)quinazolin-4(3H)-one]	> 2000	5.8	24.8	7.4	12.2	–	–	–	–	–	–	–	–	–	–	–	–	–	–	–
Cc1nc2ccc(OCCCN3CCN(c4cccc(C(F)(F)F)c4)CC3)cc2c(=O)n1C [Compound 31, 2,3-dimethyl-6-(3-(4-(3-(trifluoromethyl)phenyl)piperazin-1-yl)propoxy)quinazolin-4(3H)-one]	> 2000	9.8	21.8	8.3	19	–	–	–	–	–	–	–	–	–	–	–	–	–	–	–
O=C1CCc2ccc(OCCCCN3CCC(c4noc5cc(F)ccc45)CC3)cc2N1 [E, reference compound]	178	–	–	35.6	23.2	–	–	–	–	–	–	–	–	–	–	–	–	–	12.7	5.6
CN1CCN(C2=Nc3cc(Cl)ccc3Nc3ccccc32)CC1 [clozapine, reference compound]	–	–	–	–	–	2.28	–	–	> 50	>5.58	>21.93	–	–	–	–	–	17.9	–	–	–
O=C(CCCN1CCC(O)(c2ccc(Cl)cc2)CC1)c1ccc(F)cc1 [haloperidol, reference compound]	–	–	–	–	–	0.1	–	–	0.44	4.89	4.40	–	–	–	–	–	0.08	–	–	–
Cc1nc2n(c(=O)c1CCN1CCC(c3noc4cc(F)ccc34)CC1)CCCC2 [risperidone, reference compound]	–	–	–	–	–	–	–	–	–	–	–	–	113	–	–	–	–	–	–	–
